3 molecules from patent US20170066801A1, “ALPHA3BETA HYDROGEN BOND SURROGATE MACROCYCLES AS MODULATORS OF RAS” (NEW YORK UNIVERSITY, priority 2014, published 2017) can be followed below.

One assay addresses T1, wild type HRas (Homo sapiens, UniProt P01112).
T1 construct: levels of GTP-loaded endogenous HRas, KRas, and NRas proteins; endogenous in cells; host or cells: MIA PaCa-2
Description: RBD-pulldown of GTP-loaded Ras in MIA PaCa-2 cells. It counts as cell-based. The conditions noted are these: 48 hours. Here is the method:
(§1) To determine the effect of α3β-HBSSOS on Sos-mediated Ras activation in cells we treated MIA PaCa-2 cells, which harbor oncogenic KRas, with α3β-HBSSOS, control peptides, or vehicle control for 48 hours. Utilizing the RBD-pulldown assay we determined the levels of GTP-loaded endogenous HRas, KRas, and NRas proteins. As expected, MIA PaCa-2 cells display GTP-loading of all isoforms at steady state when treated with the vehicle control (FIGS. 11A-B).

The next assay addresses T2, wild type NRas (Homo sapiens, UniProt P01111).
T2 construct: levels of GTP-loaded endogenous HRas, KRas, and NRas proteins; endogenous in cells; host or cells: MIA PaCa-2
The assay can be described thus: RBD-pulldown of GTP-loaded Ras in MIA PaCa-2 cells. It counts as cell-based. The conditions noted are these: 48 hours. On the procedure:
as §1

In assay [1] the test system is panel of six human cancer cell lines. Description: Growth and viability of a panel of six human cancer cell lines. It counts as cell-based. The following applies: single administration of 5 μM, six days. On the procedure: Various indicated cell lines were plated at low density (˜500-1000 cells per well) in a 96-well format. 12 hours post-plating, media was supplemented with either PBS vehicle, or indicated dosage, and cells were allowed to grow for ˜5.5 days. Cells were subsequently fixed for 1 hour with a 3.7% formaldehyde solution in PBS, and stained with Syto-60 nucleic acid stain (MANUFACTURER) in solution (1:2000 Syto-60, 0.5% Triton X-100, 100 ug/mL RNAse-A, in PBS). Syto-60 stained cells were subjected to quantitative imaging in 96-well plates (Odyssey® Imager, LI-COR Biosciences; excitation: 652; emission: 678) with a 3.0 mm z-axis offset to the scan-head to get the cellular nuclei in the optimal focal plane for quantification. Absolute fluorescence intensity was normalized to the vehicle control for each respective cell line at each dose. Normalized values were visualized on a semilog plot, and data was subjected to non-linear sigmoidal dose-response to determine half-maximal effective concentration (EC50) using GraphPad Prism version 6.00 for OSX, (GraphPad Software, La Jolla Calif. USA, www.graphpad.com).
To investigate the functional consequence of inhibiting Ras activation in the context of oncogenic mutations, we examined the effect of α3β-HBSSOS on the growth and viability of cancer cells of different origins. We selected a panel of six human cancer cell lines derived from the pancreas, colon, and bladder, which harbor a variety of oncogenic proteins including mutant KRas (Table 3).
α3β-HBSSOS reduces cell viability in a dose dependent manner, with the effect spanning over four orders of magnitude. We divided the cell lines into two groups with respect to EC50 values (Table 3). […] We hypothesized that differential cellular uptake may account for the different potency of the peptides between the oncogenic and wild type RTK-Ras cell lines.

Assay [2] concerns the target 6×His-tagged HRas WT 1-166 (UniProt P01112). Description: in vitro pull-down: fluorescein-tagged peptide on 6×His-HRas 1-166 / Ni-NTA beads, in-gel fluorescence.

T2 sequence (P01111 whole entry): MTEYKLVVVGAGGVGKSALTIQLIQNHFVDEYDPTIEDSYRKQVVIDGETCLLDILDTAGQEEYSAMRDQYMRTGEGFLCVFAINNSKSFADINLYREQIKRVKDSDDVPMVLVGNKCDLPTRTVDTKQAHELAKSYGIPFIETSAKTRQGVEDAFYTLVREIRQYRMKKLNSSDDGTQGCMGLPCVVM

As to ZAEG*iYRLeLLKaEAAA-NH2 [α3β-HBSMUT], at wild type HRas, the “GTP-loading of wild type HRas” value is reported as “not”. The “GTP-loading of wild type NRas” value on wild type NRas was “not”. For the same molecule, the “effect on cell growth relative to vehicle control” value in assay [1] is recorded as “no effect on cell growth”.
Turning to `CC[C@H](C)[C@H](NC(=O)CN1C/C=C\CCC(=O)N[C@@H](Cc2ccccc2)C(=O)N[C@@H](CCC(=O)O)C1=O)C(=O)N[C@@H](Cc1ccc(O)cc1)C(=O)N[C@@H](CCCNC(=N)N)C(=O)N[C@@H](CC(C)C)C(=O)N[C@@H](CCC(=O)O)C(=O)N[C@@H](CC(C)C)C(=O)N[C@@H](CC(C)C)C(=O)N[C@@H](CCCCN)C(=O)N[C@@H](C)C(=O)N[C@@H](CCC(=O)O)C(=O)N[C@@H](CCC(=O)O)C(=O)N[C@@H](C)C(=O)N[C@@H](CC(N)=O)C(N)=O` [α-HBSSOS, reference compound], the “effect on cell growth relative to vehicle control” value in assay [1] is on record as “no effect on cell growth”.

B1: α3β-HBSSOS-Flu (peptide)
peptide: FEGIYRLELLKAEEANK
modifications: not fully specified; printed as ZFEG*iYRLeLLKaEEANK(Flu)-NH2: Z = N-terminal 5-hexenoic acid residue; G* (position 3) = bridged allylglycine residue (hydrogen bond surrogate macrocycle between Z and G3); lowercase i (position 4), e (position 8), a (position 12) = β3-residues; K17 carries fluorescein (Flu); C-terminal amide
Molecule B1 yielded a fold greater affinity than α-HBSSOS in assay [2] of 50 fold.
